In the NIST ThermoML archive (doi:10.1016/j.jct.2018.10.027):
± gives the expanded uncertainty stated by the source.

Assay: molar heat capacity at constant pressure; mn = molality of the nth substance listed, in mol/kg
Conditions: 100 kPa, Liquid, Large sample (1 g) DSC

[Cl-].[Na+] [sodium chloride] + O
molar heat capacity at constant pressure (278.15 K, m1 = 0.2038): 75.59 ± 1.2 J/K/mol
molar heat capacity at constant pressure (278.15 K, m1 = 0.3971): 75.32 ± 1.2 J/K/mol
molar heat capacity at constant pressure (278.15 K, m1 = 1.032): 74.79 ± 1.2 J/K/mol
molar heat capacity at constant pressure (283.15 K, m1 = 0.2038): 75.42 ± 1.2 J/K/mol
molar heat capacity at constant pressure (283.15 K, m1 = 0.3971): 75.21 ± 1.2 J/K/mol
molar heat capacity at constant pressure (283.15 K, m1 = 1.032): 74.42 ± 1.2 J/K/mol
molar heat capacity at constant pressure (288.15 K, m1 = 0.2038): 75.27 ± 1.2 J/K/mol
molar heat capacity at constant pressure (288.15 K, m1 = 0.3971): 75.07 ± 1.2 J/K/mol
molar heat capacity at constant pressure (288.15 K, m1 = 1.032): 74.37 ± 1.2 J/K/mol
molar heat capacity at constant pressure (293.15 K, m1 = 0.2038): 75.25 ± 1.2 J/K/mol
molar heat capacity at constant pressure (293.15 K, m1 = 0.3971): 74.95 ± 1.2 J/K/mol
molar heat capacity at constant pressure (293.15 K, m1 = 1.032): 74.28 ± 1.2 J/K/mol
molar heat capacity at constant pressure (298.15 K, m1 = 0.2038): 75.23 ± 1.2 J/K/mol
molar heat capacity at constant pressure (298.15 K, m1 = 0.3971): 74.91 ± 1.2 J/K/mol
molar heat capacity at constant pressure (298.15 K, m1 = 1.032): 74.26 ± 1.1 J/K/mol
molar heat capacity at constant pressure (303.15 K, m1 = 0.2038): 75.22 ± 1.2 J/K/mol
molar heat capacity at constant pressure (303.15 K, m1 = 0.3971): 74.9 ± 1.2 J/K/mol
molar heat capacity at constant pressure (303.15 K, m1 = 1.032): 74.22 ± 1.1 J/K/mol
molar heat capacity at constant pressure (308.15 K, m1 = 0.2038): 75.2 ± 1.2 J/K/mol
molar heat capacity at constant pressure (308.15 K, m1 = 0.3971): 74.87 ± 1.2 J/K/mol
molar heat capacity at constant pressure (308.15 K, m1 = 1.032): 74.21 ± 1.1 J/K/mol
molar heat capacity at constant pressure (313.15 K, m1 = 0.2038): 75.18 ± 1.2 J/K/mol
molar heat capacity at constant pressure (313.15 K, m1 = 0.3971): 74.87 ± 1.2 J/K/mol
molar heat capacity at constant pressure (313.15 K, m1 = 1.032): 74.2 ± 1.1 J/K/mol
molar heat capacity at constant pressure (318.15 K, m1 = 0.2038): 75.19 ± 1.2 J/K/mol
molar heat capacity at constant pressure (318.15 K, m1 = 0.3971): 74.88 ± 1.2 J/K/mol
molar heat capacity at constant pressure (318.15 K, m1 = 1.032): 74.21 ± 1.1 J/K/mol
molar heat capacity at constant pressure (323.15 K, m1 = 0.2038): 75.2 ± 1.2 J/K/mol
molar heat capacity at constant pressure (323.15 K, m1 = 0.3971): 74.96 ± 1.2 J/K/mol
molar heat capacity at constant pressure (323.15 K, m1 = 1.032): 74.26 ± 1.1 J/K/mol
molar heat capacity at constant pressure (328.15 K, m1 = 0.2038): 75.21 ± 1.2 J/K/mol
molar heat capacity at constant pressure (328.15 K, m1 = 0.3971): 74.99 ± 1.2 J/K/mol
molar heat capacity at constant pressure (328.15 K, m1 = 1.032): 74.27 ± 1.2 J/K/mol
molar heat capacity at constant pressure (333.15 K, m1 = 0.2038): 75.25 ± 1.2 J/K/mol
molar heat capacity at constant pressure (333.15 K, m1 = 0.3971): 75.03 ± 1.2 J/K/mol
molar heat capacity at constant pressure (333.15 K, m1 = 1.032): 74.28 ± 1.2 J/K/mol
molar heat capacity at constant pressure (338.15 K, m1 = 0.2038): 75.27 ± 1.2 J/K/mol
molar heat capacity at constant pressure (338.15 K, m1 = 0.3971): 75.11 ± 1.2 J/K/mol
molar heat capacity at constant pressure (338.15 K, m1 = 1.032): 74.32 ± 1.2 J/K/mol
molar heat capacity at constant pressure (343.15 K, m1 = 0.2038): 75.38 ± 1.2 J/K/mol
molar heat capacity at constant pressure (343.15 K, m1 = 0.3971): 75.21 ± 1.2 J/K/mol
molar heat capacity at constant pressure (343.15 K, m1 = 1.032): 74.34 ± 1.2 J/K/mol
molar heat capacity at constant pressure (348.15 K, m1 = 0.2038): 75.47 ± 1.2 J/K/mol
molar heat capacity at constant pressure (348.15 K, m1 = 0.3971): 75.26 ± 1.2 J/K/mol
molar heat capacity at constant pressure (348.15 K, m1 = 1.032): 74.45 ± 1.2 J/K/mol
